Experimental data taken from PubChem BioAssay AID1259407 (Chemical Carcinogenesis Research Information System (CCRIS), 2018).
The source made the active and inactive calls. How the calls were made is not given here.

System: CCRIS mutagenicity, Ames/micronucleus/aberration tests
Test: CCRIS mutagenicity studies
[1] = Test System: AMES SALMONELLA TYPHIMURIUM, Strain/Indicator: TA98, Metabolic Activation: NONE, Method: STANDARD PLATE
[2] = Test System: AMES SALMONELLA TYPHIMURIUM, Strain/Indicator: TA98, Metabolic Activation: RAT, LIVER, S-9, AROCLOR 1254, Method: STANDARD PLATE
[3] = Test System: AMES SALMONELLA TYPHIMURIUM, Strain/Indicator: TA100, Metabolic Activation: NONE, Method: STANDARD PLATE
[4] = Test System: CHINESE HAMSTER V-79, Strain/Indicator: V-79/6-THIOGUANINE, Metabolic Activation: NONE, Method: STANDARD PLATE

C[C@]12C=CC3=C4CCC(=O)C=C4CC[C@H]3[C@@H]1CC[C@@H]2O
mutagenic call [1]: inactive; negative
mutagenic call (Test System: AMES SALMONELLA TYPHIMURIUM, Strain/Indicator: TA98, Metabolic Activation: RAT, LIVER, S-9, AROCLOR 1254 (5%, 30%), Method: PREINCUBATION): inactive; negative
mutagenic call [2]: inactive; negative
mutagenic call (Test System: AMES SALMONELLA TYPHIMURIUM, Strain/Indicator: TA98, Metabolic Activation: RAT, LIVER, S-9, Method: STANDARD PLATE): inactive; negative; toxicity at 3000 ug/plate
mutagenic call [3]: inactive; negative
mutagenic call (Test System: AMES SALMONELLA TYPHIMURIUM, Strain/Indicator: TA100, Metabolic Activation: RAT, LIVER, S-9, AROCLOR 1254 (5%, 30%), Method: PREINCUBATION): inactive; negative
mutagenic call (Test System: AMES SALMONELLA TYPHIMURIUM, Strain/Indicator: TA100, Metabolic Activation: RAT, LIVER, S-9, AROCLOR 1254, Method: STANDARD PLATE): inactive; negative
mutagenic call (Test System: AMES SALMONELLA TYPHIMURIUM, Strain/Indicator: TA100, Metabolic Activation: RAT, LIVER, S-9, Method: STANDARD PLATE): inactive; negative
mutagenic call (Test System: AMES SALMONELLA TYPHIMURIUM, Strain/Indicator: TA102, Metabolic Activation: RAT, LIVER, S-9, AROCLOR 1254 (5%, 30%), Method: PREINCUBATION): inactive; negative
mutagenic call (Test System: AMES SALMONELLA TYPHIMURIUM, Strain/Indicator: TA1535, Metabolic Activation: RAT, LIVER, S-9, AROCLOR 1254, Method: STANDARD PLATE): inactive; negative
mutagenic call (Test System: AMES SALMONELLA TYPHIMURIUM, Strain/Indicator: TA1535, Metabolic Activation: RAT, LIVER, S-9, Method: STANDARD PLATE): inactive; negative
mutagenic call (Test System: AMES SALMONELLA TYPHIMURIUM, Strain/Indicator: TA1537, Metabolic Activation: RAT, LIVER, S-9, AROCLOR 1254, Method: STANDARD PLATE): inactive; negative
mutagenic call (Test System: AMES SALMONELLA TYPHIMURIUM, Strain/Indicator: TA1537, Metabolic Activation: RAT, LIVER, S-9, Method: STANDARD PLATE): inactive; negative
mutagenic call (Test System: AMES SALMONELLA TYPHIMURIUM, Strain/Indicator: TA1538, Metabolic Activation: RAT, LIVER, S-9, AROCLOR 1254, Method: STANDARD PLATE): inactive; negative
mutagenic call (Test System: AMES SALMONELLA TYPHIMURIUM, Strain/Indicator: TA1538, Metabolic Activation: RAT, LIVER, S-9, Method: STANDARD PLATE): inactive; negative
mutagenic call [4]: inactive; negative
mutagenic call (Test System: CHINESE HAMSTER V-79, Strain/Indicator: V-79/6-THIOGUANINE, Metabolic Activation: RAT, LIVER, S-9, AROCLOR 1254, Method: STANDARD PLATE): inactive; negative
mutagenic call (Test System: CHO/HGPRT, Strain/Indicator: CHO-K1-BH4, Metabolic Activation: NONE, Method: STANDARD PLATE): inactive; negative
mutagenic call (Test System: CHO/HGPRT, Strain/Indicator: CHO-K1-BH4, Metabolic Activation: RAT, LIVER, S-9, AROCLOR 1254, Method: STANDARD PLATE): inactive; negative

CCCCC/C=C/C=O
mutagenic call [4]: active; positive
mutagenic call (Test System: CHINESE HAMSTER V-79, Strain/Indicator: V-79/OUABAIN, Metabolic Activation: NONE, Method: STANDARD PLATE): inactive; negative

CCCCN[N+](=O)[O-]
mutagenic call (Test System: E. COLI, Strain/Indicator: WP2 (HCR-), Metabolic Activation: NONE): active; positive

O=C(Nc1ccccc1Br)c1csc([N+](=O)[O-])c1
mutagenic call [1]: active; positive
mutagenic call [3]: active; positive

O=C1OCC(C(Cl)Cl)=C1Cl
mutagenic call [1]: inactive; negative
mutagenic call [2]: inactive; negative
mutagenic call (Test System: AMES SALMONELLA TYPHIMURIUM, Strain/Indicator: TA102, Metabolic Activation: NONE, Method: STANDARD PLATE): active; positive
mutagenic call (Test System: AMES SALMONELLA TYPHIMURIUM, Strain/Indicator: TA102, Metabolic Activation: RAT, LIVER, S-9, AROCLOR 1254, Method: STANDARD PLATE): inactive; negative

C[n+]1ccccc1-c1cccc[n+]1C
mutagenic call (Test System: AMES SALMONELLA TYPHIMURIUM, Strain/Indicator: TA97, Metabolic Activation: RAT, LIVER, S-9, PHENOBARBITAL, Method: STANDARD PLATE): active; positive
mutagenic call (Test System: AMES SALMONELLA TYPHIMURIUM, Strain/Indicator: TA98, Metabolic Activation: RAT, LIVER, S-9, PHENOBARBITAL, Method: STANDARD PLATE): active; positive
mutagenic call (Test System: AMES SALMONELLA TYPHIMURIUM, Strain/Indicator: TA100, Metabolic Activation: RAT, LIVER, S-9, PHENOBARBITAL, Method: STANDARD PLATE): active; positive
mutagenic call (Test System: AMES SALMONELLA TYPHIMURIUM, Strain/Indicator: TA1535, Metabolic Activation: RAT, LIVER, S-9, PHENOBARBITAL, Method: STANDARD PLATE): inactive; negative
mutagenic call (Test System: AMES SALMONELLA TYPHIMURIUM, Strain/Indicator: TA1537, Metabolic Activation: RAT, LIVER, S-9, PHENOBARBITAL, Method: STANDARD PLATE): inactive; negative
mutagenic call (Test System: AMES SALMONELLA TYPHIMURIUM, Strain/Indicator: TA1538, Metabolic Activation: RAT, LIVER, S-9, PHENOBARBITAL, Method: STANDARD PLATE): inactive; negative

O=[N+]([O-])c1c2c(cc3c1ccc1ccccc13)C=C[C@@H](O)[C@@H]2O
mutagenic call [1]: active; positive
mutagenic call [3]: inactive; negative
